The molecules below were run against T1, human NK-2 receptor (Homo sapiens, UniProt P21452) (assay: binding test, affinity for the human NK-2 receptor, competition with [125I]NKA on transfected CHO cell membranes). Conditions: CHO cell membranes transfected with NK-2 receptor of human ileum; [125I]NKA 100 pM; 30 min, 20° C.
T1 construct: expressed in transfected cells; host or cells: CHO (Chinese hamster ovary) cells, membranes
T1 sequence (P21452 1-398): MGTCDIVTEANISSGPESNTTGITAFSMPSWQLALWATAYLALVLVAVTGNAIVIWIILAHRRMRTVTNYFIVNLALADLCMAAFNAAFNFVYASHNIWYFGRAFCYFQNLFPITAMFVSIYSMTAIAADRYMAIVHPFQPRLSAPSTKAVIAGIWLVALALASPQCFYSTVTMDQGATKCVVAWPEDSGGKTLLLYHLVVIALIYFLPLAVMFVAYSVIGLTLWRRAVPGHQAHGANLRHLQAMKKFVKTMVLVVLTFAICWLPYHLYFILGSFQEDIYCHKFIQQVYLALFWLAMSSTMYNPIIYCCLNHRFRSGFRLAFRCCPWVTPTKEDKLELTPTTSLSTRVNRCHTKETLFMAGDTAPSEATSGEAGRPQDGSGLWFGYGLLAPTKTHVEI
Experimental: The evaluation of the antagonist activity on NK-2 receptors has been assessed by binding and functional tests according to that already described in literature in relation to NK-2 antagonists.
The test substances have been tested within a concentration range from 0.01 nM to 10 nM. At the end of the incubation time (30 min, 20° C.) the samples have been filtered and radioactivity has been determined using a gamma-counter.

| SMILES | Ki [nM] | pKi |
| --- | --- | --- |
| COc1ccc2cc(C(=O)NC3(C(=O)N[C@H](Cc4ccccc4)C(=O)NCC4CCN(CC5CCOCC5)CC4)CCCC3)ccc2c1 [Example 118, 6-Methoxy-naphthalene-2-carboxylic acid [1-(2-phenyl-1R-{[1-(tetrahydro-pyran-4-ylmethyl)-piperidin-4-ylmethyl]-carbamoyl}-ethylcarbamoyl)-cyclopentyl]-amide] | 0.316 |  |
| O=C(NC1(C(=O)N[C@H](Cc2ccccc2)C(=O)NCC2CCN(CC3CCOCC3)CC2)CCCC1)c1cc2ccc(Br)cc2o1 [Example 119, 6-Bromo-benzofuran-2-carboxylic acid [1-(2-phenyl-1R-{[1-(tetrahydro-pyran-4-ylmethyl)-piperidin-4-ylmethyl]-carbamoyl}-ethylcarbamoyl)cyclopentyl]-amide] | 0.251 |  |
| O=C(NC1(C(=O)N[C@H](Cc2ccccc2)C(=O)NCC2CCN(CC3CCOCC3)CC2)CCCC1)c1cc2ccc(Cl)cc2o1 [Example 120] | 0.316 |  |
| O=C(NC1(C(=O)N[C@H](Cc2ccccc2)C(=O)NCC2CCN(CC3CCOCC3)CC2)CCCC1)c1cc2cc(F)ccc2o1 [Example 121, 5-Fluoro-benzofuran-2-carboxylic acid [1-(2-phenyl-1R-{[1-(tetrahydro-pyran-4-ylmethyl)-piperidin-4-ylmethyl]-carbamoyl}-ethylcarbamoyl)-cyclopentyl]-amide] | 0.501 |  |
| O=C(NC1(C(=O)N[C@H](Cc2ccccc2)C(=O)NCC2CCN(CC3CCOCC3)CC2)CCCC1)c1cc2cc(Br)ccc2o1 [Example 123, 5-Bromo-benzofuran-2-carboxylic acid [1-(2-phenyl-1R-{[1-(tetrahydro-pyran-4-ylmethyl)-piperidin-4-ylmethyl]-carbamoyl}-ethylcarbamoyl)cyclopentyl]-amide] | 0.1 |  |
| CC(C)(C)c1cccc2cc(C(=O)NC3(C(=O)N[C@H](Cc4ccccc4)C(=O)NCC4CCN(CC5CCOCC5)CC4)CCCC3)oc12 [Example 124, 7-tert-Butyl-benzofuran-2-carboxylic acid [1-(2-phenyl-1R-{[1-(tetrahydro-pyran-4 ylmethyl)-piperidin-4-ylmethyl]-carbamoyl}-ethylcarbamoyl)-cyclopentyl]-amide] | 0.1 |  |
| Cc1ccc2cc(C(=O)NC3(C(=O)N[C@H](Cc4ccccc4)C(=O)NCC4CCN(CC5CCOCC5)CC4)CCCC3)oc2c1 [Example 125, 6-Methyl-benzofuran-2-carboxylic acid [1-(2-phenyl-1R-{[1-(tetrahydro-pyran-4-ylmethyl)-piperidin-4-ylmethyl]-carbamoyl}-ethylcarbamoyl)-cyclopentyl]-amide] | 0.251 |  |
| Cc1ccc2oc(C(=O)NC3(C(=O)N[C@H](Cc4ccccc4)C(=O)NCC4CCN(CC5CCOCC5)CC4)CCCC3)cc2c1 [Example 126, 5-Methyl-benzofuran-2-carboxylic acid [1-(2-phenyl-1R-([1-(tetrahydro-pyran-4-ylmethyl)-piperidin-4-ylmethyl]-carbamoyl}-ethylcarbamoyl)-cyclopentyl]-amide] | 0.158 |  |
| CC(C)(C)c1ccc2oc(C(=O)NC3(C(=O)N[C@H](Cc4ccccc4)C(=O)NCC4CCN(CC5CCOCC5)CC4)CCCC3)cc2c1 [Example 128, 5-tert-Butyl-benzofuran-2-carboxylic acid [1-(2-phenyl-1R-{[1-(tetrahydro-pyran-4-ylmethyl)-piperidin-4-ylmethyl]-carbamoyl}-ethylcarbamoyl)-cyclopentyl]-amide] | 0.126 |  |
| Cc1ccc2sc(C(=O)NC3(C(=O)N[C@H](Cc4ccccc4)C(=O)NCC4CCN(CC5CCOCC5)CC4)CCCC3)cc2c1 [Example 138, 5-Methyl-benzo[b]thiophene-2-carboxylic acid [1-(2-phenyl-1R-{[1-(tetrahydro-pyran-4-ylmethyl)piperidin-ylmethyl]-carbamoyl}-ethylcarbamoyl)-cyclopentyl]-amide] |  | 9.8 |
| CCN(CC)c1ccc2cc(C(=O)NC3(C(=O)N[C@H](Cc4ccccc4)C(=O)NCC4CCN(CC5CCOCC5)CC4)CCCC3)oc2c1 [Example 145, 6-Diethylamino-benzofuran-2-carboxylic acid [1-(2-phenyl-1-{[1R-(tetrahydro-pyran-4-ylmethyl)-piperidin-4-ylmethyl)-carbamoyl}-ethylcarbamoyl)-cyclopentyl]-amide] | 0.501 |  |
| COc1ccc2oc(C(=O)NC3(C(=O)N[C@H](Cc4ccccc4)C(=O)NCC4CCN(CC5CCOCC5)CC4)CCCC3)cc2c1 [Example 146, 5-Methoxy-benzofuran-2-carboxylic acid [1-(2-phenyl-1-{[1R-(tetrahydro-pyran-4-ylmethyl)-piperidin-4-ylmethyl]-carbamoyl}-ethylcarbamoyl)-cyclopentyl]-amide] | 0.398 |  |
| CCN(CC)c1ccc2oc(C(=O)NC3(C(=O)N[C@H](Cc4ccccc4)C(=O)NCC4CCN(CC5CCOCC5)CC4)CCCC3)cc2c1 [Example 147] | 0.631 |  |
| Cc1cc2oc(C(=O)NC3(C(=O)N[C@H](Cc4ccccc4)C(=O)NCC4CCN(CC5CCOCC5)CC4)CCCC3)c(C)c2cc1C [Example 148, 3,5,6-Trimethyl-benzofuran-2-carboxylic acid [1-(2-phenyl-1-{[1R-(tetrahydro-pyran-4-ylmethyl)-piperidin-4-ylmethyl]-carbamoyl}-ethylcarbamoyl)-cyclopentyl]-amide] | 0.316 |  |
| O=C(NC1(C(=O)NC(Cc2ccccc2)C(=O)NCC2CCN(CC3CCOCC3)CC2)CCCC1)c1ccc2ccccc2c1 (stereo not drawn) [Example 149, Naphthalene-2-carboxylic acid [1-(2-phenyl-1-{[1R-(tetrahydro-pyran-4-ylmethyl)-piperidin-4ylmethyl]-carbamoyl}-ethylcarbamoyl)-cyclopentyl]-amide] |  | 9.9 |

Next, values leading:

| Ki [nM] | pKi | SMILES |
| --- | --- | --- |
| 0.0501 |  | O=C(NC1(C(=O)N[C@H](Cc2ccccc2)C(=O)NCC2CCN(CC3CCOCC3)CC2)CCCC1)c1ccc2cc(I)ccc2c1 [Example 117, 6-Iodo-naphthalene-2-carboxylic acid (1-(2-phenyl-1R-{[1-(tetrahydro-pyran-4-ylmethyl)-piperidin-4-ylmethyl]-carbamoyl}-ethylcarbamoyl)-cyclopentyl]-amide] |
| 0.1 |  | O=C(NC1(C(=O)N[C@H](Cc2ccccc2)C(=O)NCC2CCN(CC3CCOCC3)CC2)CCCC1)c1cc2cc(Cl)ccc2o1 [Example 122, 5-Chloro-benzofuran-2-carboxylic acid [1-(2-phenyl-1R-{[1-(tetrahydro-pyran-4 ylmethyl)-piperidin-4-ylmethyl]-carbamoyl}-ethylcarbamoyl)cyclopentyl]-amide] |
| 0.0794 |  | O=C(NC1(C(=O)N[C@H](Cc2ccccc2)C(=O)NCC2CCN(CC3CCOCC3)CC2)CCCC1)c1cc2cc(I)ccc2o1 [Example 127, 5-Iodo-benzofuran-2-carboxylic acid [1-(2-phenyl-1R-{[1-(tetrahydro-pyran-4-ylmethyl)-piperidin-4-ylmethyl]-carbamoyl}-ethylcarbamoyl)-cyclopentyl]-amide] |
| 0.0501 |  | O=C(NC1(C(=O)N[C@H](Cc2ccccc2)C(=O)NCC2CCN(CC3CCOCC3)CC2)CCCC1)c1cc2ccc(I)cc2s1 [Example 129, 6-Iodo-benzo[b]thiophene-2-carboxylic acid [1-(2-phenyl-1R-{[1-(tetrahydro-pyran-4-ylmethyl)-piperidin-4-ylmethyl]-carbamoyl}-ethylcarbamoyl)-cyclopentyl]-amide] |
| 0.0398 |  | O=C(NC1(C(=O)N[C@H](Cc2ccccc2)C(=O)NCC2CCN(CC3CCOCC3)CC2)CCCC1)c1cc2cccc(Br)c2s1 [Example 131, 7-Bromo-benzo[b]thiophene-2-carboxylic acid [1-(2-phenyl-1R-{[1-(tetrahydro-pyran-4-ylmethyl)-piperidin-4-ylmethyl]-carbamoyl}-ethylcarbamoyl)-cyclopentyl]-amide] |
| 0.0316 |  | O=C(NC1(C(=O)N[C@H](Cc2ccccc2)C(=O)NCC2CCN(CC3CCOCC3)CC2)CCCC1)c1cc2cccc(I)c2s1 [Example 132, 7-Iodo-benzo[b]thiophene-2-carboxylic acid [1-(2-phenyl-1R-{[1-(tetrahydro-pyran 4-ylmethyl)-piperidin-4-ylmethyl]-carbamoyl}-ethylcarbamoyl)-cyclopentyl]-amide] |
| 0.0631 |  | Cc1cccc2cc(C(=O)NC3(C(=O)N[C@H](Cc4ccccc4)C(=O)NCC4CCN(CC5CCOCC5)CC4)CCCC3)sc12 [Example 134, 7-Methyl-benzo[b]thiophene-2-carboxylic acid [1-(2-phenyl-1R-{[1-(tetrahydro-pyran-4-ylmethyl)-piperidin-4-ylmethyl]-carbamoyl}-ethylcarbamoyl)-cyclopentyl]-amide] |
| 0.0631 |  | O=C(NC1(C(=O)N[C@H](Cc2ccccc2)C(=O)NCC2CCN(CC3CCOCC3)CC2)CCCC1)c1cc2cccc(C(F)(F)F)c2s1 [Example 136, 7-Trifluoromethyl-benzo[b]thiophene-2-carboxylic acid [1-(2-phenyl-1R-{[1-(tetrahydro-pyran-4-ylmethyl)piperidin-4-ylmethyl]-carbamoyl}-ethylcarbamoyl)-cyclopentyl]-amide] |
| 0.0794 |  | O=C(NC1(C(=O)N[C@H](Cc2ccccc2)C(=O)NCC2CCN(CC3CCOCC3)CC2)CCCC1)c1cc2cccc(Cl)c2s1 [Example 137, 7-Chloro-benzo[b]thiophene-2-carboxylic acid [1-(2-phenyl-1R-{[1-(tetrahydro-pyran-4-ylmethyl)-piperidin-4-ylmethyl]-carbamoyl}-ethylcarbamoyl)-cyclopentyl]-amide] |
